The assay deals with GABAA receptor (rat brain cortical membranes, [35S]-TBPS binding). Particulars: rat brain cortical membranes, 3 nM [35S]-TBPS, in the presence of 5 mM GABA.

Where two headings read alike, the source gives them in different places.

What is called IC50 is the point on the concentration scale where inhibition reaches its midpoint.

For `C[C@@]1(O)CC[C@H]2[C@H](CC[C@@H]3[C@@H]2CC[C@]2(C)[C@H](C(=O)Cn4cc(C#N)cn4)C[C@@H]32)C1` [Compound I-105, 1-(2-((1R,2aS,2bR,4aR,6R,8aS,8bR,10aS)-6-hydroxy-6,10a-dimethylhexadecahydrocyclobuta[a]phenanthren-1-yl)-2-oxoethyl)-1H-pyrazole-4-carbonitrile], the concentration for half-maximal inhibition (IC50) (Table I-5) is 1000 to 10000 nM. Still for that read-out and setting: to `C[C@@]1(O)CC[C@@]2(C)[C@H](CC[C@@H]3[C@@H]2CC[C@]2(C)[C@@H](C(=O)Cn4cc(C#N)cn4)C[C@@H]32)C1` [Compound I-106, 1-(2-((1S,2aS,2bR,4aR,6R,8aS,8bS,10aS)-6-hydroxy-6,8a,10a-trimethylhexadecahydrocyclobuta[a]phenanthren-1-yl)-2-oxoethyl)-1H-pyrazole-4-carbonitrile] belongs 100 to 1000 nM; to `C[C@@]1(O)CC[C@@]2(C)[C@H](CC[C@@H]3[C@@H]2CC[C@]2(C)[C@@H](C(=O)Cn4nccn4)C[C@@H]32)C1` [Compound I-107, 1-((1S,2aS,2bR,4aR,6R,8aS,8bS,10aS)-6-hydroxy-6,8a,10a-trimethylhexadecahydrocyclobuta[a]phenanthren-1-yl)-2-(2H-1,2,3-triazol-2-yl)ethan-1-one], 1000 to 10000 nM. Same read-out and setting: the result for `C[C@@]1(O)CC[C@@]2(C)[C@H](CC[C@@H]3[C@@H]2CC[C@]2(C)[C@@H](C(=O)Cn4ccnn4)C[C@@H]32)C1` [Compound I-107a, 1-((1S,2aS,2bR,4aR,6R,8aS,8bS,10aS)-6-hydroxy-6,8a,10a-trimethylhexadecahydrocyclobuta[a]phenanthren-1-yl)-2-(1H-1,2,3-triazol-1-yl)ethan-1-one] reads 1000 to 10000 nM. `COC[C@H]1C[C@H]2[C@@H]3CC[C@@H]4C[C@](C)(O)CC[C@@H]4[C@H]3CC[C@]12C` [Compound I-117, (1S,2aS,2bR,4aR,6R,8aS,8bR,10aS)-1-(methoxymethyl)-6,10a-dimethylhexadecahydrocyclobuta[a]phenanthren-6-ol]: the concentration for half-maximal inhibition (IC50) (Table I-5) lay in the range of 100 to 1000 nM. As for `COC[C@@H]1C[C@H]2[C@@H]3CC[C@@H]4C[C@](C)(O)CC[C@@H]4[C@H]3CC[C@]12C` [Compound I-118, (1R,2aS,2bR,4aR,6R,8aS,8bR,10aS)-1-(methoxymethyl)-6,10a-dimethylhexadecahydrocyclobuta[a]phenanthren-6-ol], the IC50 (Table I-5) lay within 1000 to 10000 nM.

As to `C[C@@]1(O)CC[C@H]2[C@H](CC[C@@H]3[C@@H]2CC[C@]2(C)[C@@H](CO)CCC[C@@H]32)C1` [I-A3, (2R,4aS,4bR,6aS,7S,10aS,10bR,12aR)-7-(hydroxymethyl)-2,6a-dimethyloctadecahydrochrysen-2-ol], for the setting “Table I-4”, the half-inhibitory concentration (IC50) was 100 to 1000 nM. Consider `CN(C[C@H]1CCC[C@H]2[C@@H]3CC[C@@H]4C[C@](C)(O)CC[C@@H]4[C@H]3CC[C@]12C)S(=O)(=O)c1ccccc1` [I-A8, N-(((1S,4aS,4bR,6aR,8R,10aS,10bR,12aS)-8-hydroxy-8,12a-dimethyloctadecahydrochrysen-l-yl)methyl)-N-methylbenzenesulfonamide], for which the IC50 (Table I-4) was 10 to 100 nM. Consider `C[C@@]1(O)CC[C@H]2[C@H](CC[C@@H]3[C@@H]2CC[C@]2(C)[C@@H](C(=O)Nc4ccccc4)C[C@@H]32)C1` [I-AA6, (1S,2aS,2bR,4aR,6R,8aS,8bR,10aS)-6-hydroxy-6,10a-dimethyl-N-phenylhexadecahydrocyclobuta[a]phenanthrene-1-carboxamide], for which, for the setting “Table I-5”, the half-maximal inhibitory concentration (IC50) is 1000 to 10000 nM. In the case of `C[C@@]1(O)CC[C@H]2[C@H](CC[C@@H]3[C@@H]2CC[C@]2(C)[C@H](C(=O)Nc4ccccc4)C[C@@H]32)C1` [I-AA6a, (1R,2aS,2bR,4aR,6R,8aS,8bR,10aS)-6-hydroxy-6,10a-dimethyl-N-phenylhexadecahydrocyclobuta[a]phenanthrene-1-carboxamide], the IC50 (Table I-5) fell in the range of 1000 to 10000 nM. Take `CC(=O)[C@H]1C[C@H]2[C@@H]3CC[C@@H]4C[C@](C)(O)CC[C@@H]4[C@H]3CC[C@]12C` [I-AA8, 1-((1S,2aS,2bR,4aR,6R,8aS,8bR,10aS)-6-hydroxy-6,10a-dimethylhexadecahydrocyclobuta[a]phenanthren-1-yl)ethan-1-one]: the IC50 (Table I-5) fell in the range of 100 to 1000 nM.

On to `C[C@@]1(O)CC[C@H]2[C@H](CC[C@@H]3[C@@H]2CC[C@]2(C)[C@@H](C(=O)Cn4nccn4)C[C@@H]32)C1` [I-AA11, 1-((1S,2aS,2bR,4aR,6R,8aS,8bR,10aS)-6-hydroxy-6,10a-dimethylhexadecahydrocyclobuta[a]phenanthren-1-yl)-2-(2H-1,2,3-triazol-2-yl)ethan-1-one], for which the IC50 (Table I-5) fell in the range of 1000 to 10000 nM.

Consider `C[C@@]1(O)CC[C@H]2[C@H](CC[C@@H]3[C@@H]2CC[C@]2(C)[C@@H](C(=O)Cn4ccnn4)C[C@@H]32)C1` [I-AA12, 1-((1S,2aS,2bR,4aR,6R,8aS,8bR,10aS)-6-hydroxy-6,10a-dimethylhexadecahydrocyclobuta[a]phenanthren-1-yl)-2-(1H-1,2,3-triazol-1-yl)ethan-1-one], for which, for the setting “Table I-5”, the concentration for half-maximal inhibition (IC50) is 1000 to 10000 nM.

For the molecule `C[C@@]1(O)CC[C@H]2[C@H](CC[C@@H]3[C@@H]2CC[C@]2(C)[C@@H](CO)C[C@@H]32)C1` [I-AB1, (1S,2aS,2bR,4aR,6R,8aS,8bR,10aS)-1-(hydroxymethyl)-6,10a-dimethylhexadecahydrocyclobutaialphenanthren-6-ol], under “Table I-5”, the IC50 lay in the range of 1000 to 10000 nM. For `C[C@@]1(O)CC[C@H]2[C@H](CC[C@@H]3[C@@H]2CC[C@]2(C)[C@H](CO)C[C@@H]32)C1` [I-AB1a, (1R,2aS,2bR,4aR,6R,8aS,8bR,10aS)-1-(hydroxymethyl)-6,10a-dimethylhexadecahydrocyclobuta[a]phenanthren-6-ol], the half-inhibitory concentration (IC50) (Table I-5) lay in the range of 1000 to 10000 nM. With `COC[C@@]1(O)CC[C@H]2[C@H](CC[C@@H]3[C@@H]2CC[C@]2(C)[C@@H](C(=O)Nc4ccccc4)C[C@@H]32)C1` [I-AC8, (1S,2aS,2bR,4aR,6R,8aS,8bR,10aS)-6-hydroxy-6-(methoxymethyl)-10a-methyl-N-phenylhexadecahydrocyclobuta[a]phenanthrene-1-carboxamide], where the note is “Table I-5”, the IC50 is 1000 to 10000 nM. With `COC[C@@]1(O)CC[C@H]2[C@H](CC[C@@H]3[C@@H]2CC[C@]2(C)[C@H](C(=O)Nc4ccccc4)C[C@@H]32)C1` [I-AC8a, (1R,2aS,2bR,4aR,6R,8aS,8bR,10aS)-6-hydroxy-6-(methoxymethyl)-10a-methyl-N-phenylhexadecahydrocyclobuta[a]phenanthrene-1-carboxamide], the IC50 (Table I-5) was in the range of 1000 to 10000 nM. On to `COC[C@@]1(O)CC[C@H]2[C@H](CC[C@@H]3[C@@H]2CC[C@]2(C)[C@@H](C(=O)N4CCCC[C@@H]4C)C[C@@H]32)C1` [I-AC9, ((1S,2aS,2bR,4aR,6R,8aS,8bR,10aS)-6-hydroxy-6-(methoxymethyl)-10a-methylhexadecahydrocyclobutaialphenanthren-1-yl)((S)-2-methylpiperidin-1-yl)methanone], for which the concentration for half-maximal inhibition (IC50) (Table I-5) fell in the range of 1000 to 10000 nM.

The values are drawn from US20220315621A1, “COMPOSITIONS AND METHODS FOR TREATING CNS DISORDERS” (priority 2017, published 2022).
